# According to patent US20260215425A1, “NITRIFICATION INHIBITORS” (The University of Melbourne, priority 2022, published 2026):
# Test system: N. multiformis
# Experiment: standard nitrification inhibition assay (NO2- production, Griess)
# Assay type: cell-based, Nitrosospira multiformis
# Conditions: [NH4+]=3 mM, [inhibitor]=0.3 mM (10 mol %), pH 7.5, 30° C., 60 min
# Procedure: Cells of N. multiformis and N. europaea were cultivated to the mid-exponential growth phase (OD600=0.1, [NO2^−] approximately 800 μM) and harvested by filtration onto 0.2 μm membrane filters (Mixed Cellulose Ester (MCE), Sigma Aldrich). The cells were washed with 2×100 mL of 0.1 M sodium phosphate buffer (NaPB), containing 0.2 mM MgSO4 at pH 7.5. The cells were washed from the filter paper by transferring it to a sterile 50 mL tube and resuspending in NaPB (15 mL), followed by 5 s of vortexing (Ratek, Australia) and 3 s of sonication (Vevor, Australia). […] Experiments were performed in triplicate.
# In a deep 96-well plate (2 mL capacity), 980 μL of the bacterial inoculum (OD600=0.03) was added to the inhibitor (10 μL, 30 mmol L^−1 in Milli-Q water), the solutions were mixed thoroughly and pre-incubated in the dark for 5 minutes at 100 rpm and 30° C. (NH4)2SO4 (10 μL, 150 mM, from a prepared sterile solution containing 19.8 g L^−1 (NH4)2SO4 in Milli-Q water) was then added using a multi-channel pipette. The plate was covered with a with an O2 permeable membrane to ensure aeration (Breathe-Easy® sealing membrane, Sigma Aldrich) and incubated in a temperature-regulated rotary incubator (Ratek, Australia) in the dark for 60 minutes at 30° C. and 100 rpm. An aliquot of the reaction solution ([…]) was transferred to a 96-well spectrophotometric plate to which 50 µL of Griess reagent was added. The colour was allowed to develop for 15 minutes at room temperature, and the absorbance was measured at 540 nm. Each assay was accompanied by control treatments to determine the 0% and 100% NO2 signal. The percentage inhibition was calculated according to eqn. 1 from the NO2 production of the cells in NaPB (i) without additive (‘untreated cells’: 0% signal), (ii) with [NH4^+]=3 mM (‘uninhibited’ cells: 100% signal) and (iii) with [NH4^+]=3 mM and [inhibitor]=0.3 mM and 0.03 mM (10 mol % and 1 mol % of [NH4^+], ‘inhibited cells’). Experiments were performed in triplicate.
smiles,measurement,value
"C#CCn1cc(C)nn1 [Compound 4-MPT, 4-Methyl-1-(prop-2-yn-1yl)-1H-1,2,3-triazole]",% Inhibition NM,75%
